US20030206893A1, “Cell proliferating agents” (priority 2002, published 2003)
Where a name gives a salt, the structure may show the parent alone.

How the values were obtained:
[1] = system: human skin fibroblast cell line (normal human dermal fibroblasts, neonatal); experiment: Proliferative response of plant growth factors on human skin fibroblast cell line, 96-well assay (Cell Titer 96 Aqueous One, absorbance 490 nm); type: cell-based; conditions: 28 hours incubation, serum-free DMEM
Protocol: The proliferative response of plant growth factors on the human skin fibroblast cell line (Clonetics, Walkersville, Md., normal human dermal fibroblasts, neonatal, Catalog No. CC-2509) was determined in a 96-well assay system using serum-free medium as a control.
Stock solution of gibberellic acid (Sigma Chemical Company, St. Louis, Mo.) (0.001 M) was prepared in water and then diluted with serum-free Dulbecco's Modified Eagle's Medium (DMEM, Sigma Chemical Co., St. Louis, Mo.) to 10^−5, (“GA2”) and 10^−6 (“GA1”) M solutions. Cells were seeded into 96 well plates at a concentration of 3×10^3 cells in 100 microliters of DMEM containing 10 percent fetal bovine serum (FBS, Sigma Chemical Co., St. Louis, Mo.). Plates were incubated for 24 hours at 37° C. in a humidified, 5 percent CO2 atmosphere. After incubation, the medium was aspirated and the wells were rinsed twice with 100 microliters of serum-free DMEM. The final rinse was aspirated and 100 microliters of the 10^−5 and 10^−6 M of each solution was added to 10 wells. In addition, 100 microliters of vehicle (serum-free DMEM) was added to 10 wells as control. All wells were incubated for 28 hours at 37° C. in a humidified, 5 percent CO2 atmosphere. After incubation, 20 microliters of Cell Titer 96 Aqueous One Solution Reagent (Promega, Corp., Madison, Wis.) was added to all wells. The plates were swirled gently and placed back in the incubator for 45 minutes and spectrophotometric absorbance was read at 490 nm.
Statistical analysis was done by using one-way ANOVA.
Kinetin (Spectrum Chemical, CA) 1 mg/ml aqueous solution as supplied by the Company was used as a stock solution. Further dilutions were made with serum-free Dulbecco's Modified Eagle's Medium (DMEM, Sigma Chemical Co., St. Louis, Mo.) to 10^−5, (“K2”) and 10^−6 (“K1”) M solutions. Cells were seeded into 96 well plates at a concentration of 3×10^3 cells in 100 microliters of DMEM containing 10 percent fetal bovine serum (FBS, Sigma Chemical Co., St. Louis, Mo.). Plates were incubated for 24 hours at 37° C. in a humidified, 5 percent CO2 atmosphere. After incubation, the medium was aspirated and the wells were rinsed twice with 100 microliters of serum-free DMEM. The final rinse was aspirated and 100 microliters of the 10^−5 and 10^−6 M of each solution was added to 10 wells. In addition, 100 microliters of vehicle (serum-free DMEM) was added to 10 wells as control. All wells were incubated for 28 hours at 37° C. in a humidified, 5 percent CO2 atmosphere. After incubation, 20 microliters of Cell Titer 96 Aqueous One Solution Reagent (Promega, Corp., Madison, Wis.) was added to all wells. The plates were swirled gently and placed back in the incubator for 45 minutes and spectrophotometric absorbance was read at 490 nm. […]

[2] = system: human fibroblasts; conditions: reported by S. I. Rattan, Biochem Biophys Res. Comm., 201, 665-672, 1994; cited from earlier work
[3] = 10^-5 and 10^-6 M solutions, 3x10^3 cells seeded
[4] = 10^-4, 10^-5 and 10^-6 M solutions, 2x10^3 cells seeded

## C=C1C[C@]23C[C@@]1(O)CC[C@H]2[C@@]12C=C[C@H](O)[C@@](C)(C(=O)O1)[C@H]2[C@@H]3C(=O)O [gibberellic acid]
[1]; [3]
  effect on cell proliferation versus serum-free medium control (one-way ANOVA): good cell proliferating agent

## CC/C=C\C[C@H]1C(=O)CC[C@@H]1CC(=O)O [jasmonic acid]
[1]; [4]
  effect on cell proliferation versus serum-free medium control (one-way ANOVA): strong cell proliferating agent

## c1coc(CNc2ncnc3[nH]cnc23)c1 [kinetin]
[2]
  effect on onset of aging characteristics in human fibroblasts: delay the onset of aging characteristics
[1]; [3]
  effect on cell proliferation versus serum-free medium control (one-way ANOVA): good cell proliferating agent

## C/C(=C\CNc1ncnc2[nH]cnc12)CO [zeatin, trans-zeatin HCl]
[1]; [4]
  effect on cell proliferation versus serum-free medium control (one-way ANOVA): good cell proliferating agent
